Where two headings read alike, the source gives them in different places.
Legend:
HepG2 cells [1] = assay: Oxygen consumption, Seahorse XF24 analyzer; assay type: cell-based, human
[2] = system: isolated rat liver mitochondria; assay: Oxygen consumption, Clark-type oxygen electrode; assay type: biochemical
HepG2 cells [3] = system: HepG2 cells
rat primary hepatocytes [4] = assay: MMP assay in rat primary hepatocytes
HepG2 cells [5] = conditions: cited from earlier work; for IC50: read-out: MMP assays IC50 (µM) qHTS-HepG2
HepG2 cells [6] = assay: Intracellular ATP content (cell viability) assay; assay type: cell-based, human
hNSC = assay: MMP assay in human neural stem cells (hNSC); assay type: cell-based; conditions: for IC50: read-out: hNSC IC50 (MMP)
rat primary hepatocytes [7] = system: rat primary hepatocytes
[8] = system: HeLa cells expressing YFP-Parkin; assay: Parkin translocation assay; assay type: cell-based, human
HepG2 cells [9] = assay: ROS-Glo hydrogen peroxide (ROS) assay; assay type: cell-based, human; conditions: for EC50: read-out: ROS (HepG2) EC50
[10] = system: p53 (p53-bla HCT-116 cells); assay: p53 β-lactamase reporter gene assay; assay type: cell-based, human
[11] = system: Nrf2/ARE (ARE-bla HepG2 cells); assay: ARE β-lactamase reporter gene assay; assay type: cell-based, human
[12] = system: Caenorhabditis elegans strain PE255; assay: In vivo C. elegans ATP status assay
[13] = system: Caenorhabditis elegans (Bristol N2); conditions: Bristol N2 (wild type), Caenorhabditis elegans, in vivo
[14] = system: Caenorhabditis elegans strain PE255; conditions: PE255 [sur-5::luc+::gfp; rol-6(su1006)], Caenorhabditis elegans, in vivo
HepG2 cells [15] = assay: cells; conditions: Homo sapiens
[16] = system: Caenorhabditis elegans (Bristol N2); assay: C. elegans larval development and growth assay
[17] = 16 h incubation, mean±SD of three experiments

## CC(C)c1cccc(C(C)C)c1N1C(=O)c2ccc(O)cc2C1=O [5HPP-33]
HepG2 cells [1]
  Activity in oxygen consumption: Uncoupler+inhibitor
[2]
  Potential Mechanism: Uncoupler at low concentration (20 µM), and uncoupler + inhibitor at high concentration (100 µM)
[2]; 4 µM
  I-ADP, % of control (O2 consumption rate): 107 (52.5) % of control
  I-sub, % of control (O2 consumption rate): 123 (19.8) % of control
  II-ADP, % of control (O2 consumption rate): 89 (69.2) % of control
  II-sub, % of control (O2 consumption rate): 97 (29.6) % of control
[2]; 20 µM
  I-ADP, % of control (O2 consumption rate): 122 (60.3) % of control
  I-sub, % of control (O2 consumption rate): 296 (47.6) % of control
  II-ADP, % of control (O2 consumption rate): 95 (73.6) % of control
  II-sub, % of control (O2 consumption rate): 166 (50.8) % of control
[2]; 100 µM
  I-ADP, % of control (O2 consumption rate): 77 (41.0) % of control
  I-sub, % of control (O2 consumption rate): 331 (44.5) % of control
  II-ADP, % of control (O2 consumption rate): 51 (34.2) % of control
  II-sub, % of control (O2 consumption rate): 200 (43.4) % of control
HepG2 cells [3]
  HepG2 (efficacy) Galactose (MMP): 29.4±5.02 ( −106±1.68 ) %
  HepG2 (efficacy) Glucose (MMP): 20.1±3.62 ( −100±2.99 ) %
  MMP assays efficacy (%) HepG2: -96%
HepG2 cells [3]; read-out: HepG2 IC50 Galactose (MMP)
  IC50: 29.4 µM
HepG2 cells [3]; read-out: HepG2 IC50 Glucose (MMP)
  IC50: 20.1 µM
HepG2 cells [3]; read-out: MMP assays IC50 (µM) HepG2
  IC50: 2.24 µM
Rat primary hepatocytes [4]; read-out: MMP assays IC50 (µM) Rat Hepatocytes
  IC50: 29.1 ± 12.2 µM
Rat primary hepatocytes [4]; read-out: Rat hepatocytes IC50 (MMP)
  IC50: 38.3 µM
HepG2 cells [5]
  MMP assays efficacy (%) qHTS-HepG2: -97±0%
  IC50: 2.09 ± 0.87 µM
HepG2 cells [6]
  ATP (HepG2, galactose) (efficacy): 39.7±2.69 ( −66.5±7.10 ) %
  ATP (HepG2, glucose) (efficacy): 51.2±14.4 ( −67.7±3.67 ) %
HepG2 cells [6]; read-out: ATP (HepG2, galactose) IC50
  IC50: 39.7 µM
HepG2 cells [6]; read-out: ATP (HepG2, glucose) IC50
  IC50: 51.2 µM
hNSC
  hNSC (efficacy) (MMP): 12.1±1.39 ( −107±4.15 ) %
  IC50: 12.1 µM
Rat primary hepatocytes [7]
  Rat hepatocytes (efficacy) (MMP): 38.3±4.41 ( −99.8±6.08 ) %
[8]
  Parkin recruitment: Active
HepG2 cells [9]
  ROS (HepG2) (efficacy): 37.1±2.42 ( 37.6±1.63 ) %
  EC50: 37.1 µM
[10]; [17]
  EC50: 1.73 ± 0.19 µM
[10]; % of positive control
  p53 (HCT-116) (efficacy): 76.9±9.78%
[11]; 16 h incubation, mean±SD of three experiments, read-out: ARE (HepG2) EC50
  EC50: 25.3 ± 1.74 µM
[11]; % of positive control
  ARE (HepG2) (efficacy): 54.9±7.97%

## O=C1c2ccccc2C(=O)C1C(=O)C(c1ccccc1)c1ccc(Cl)cc1 (stereo not drawn) [Chlorophacinone]
[2]
  Potential Mechanism: Uncoupler at low concentrations (0.8-4 µM), and Uncoupler + inhibitor at high concentrations (20 -100 µM)
[2]; 0.16 µM
  I-ADP, % of control (O2 consumption rate): 104 (45.2) % of control
  I-sub, % of control (O2 consumption rate): 112 (14.7) % of control
  II-ADP, % of control (O2 consumption rate): 97 (66.0) % of control
  II-sub, % of control (O2 consumption rate): 97 (20.2) % of control
[2]; 0.8 µM
  I-ADP, % of control (O2 consumption rate): 95 (41.2) % of control
  I-sub, % of control (O2 consumption rate): 111 (14.5) % of control
  II-ADP, % of control (O2 consumption rate): 107 (72.3) % of control
  II-sub, % of control (O2 consumption rate): 125 (26.1) % of control
[2]; 4 µM
  I-ADP, % of control (O2 consumption rate): 97 (42.2) % of control
  I-sub, % of control (O2 consumption rate): 182 (23.9) % of control
  II-ADP, % of control (O2 consumption rate): 87 (58.8) % of control
  II-sub, % of control (O2 consumption rate): 203 (42.5) % of control
[2]; 20 µM
  I-ADP, % of control (O2 consumption rate): 72 (31.3) % of control
  I-sub, % of control (O2 consumption rate): 285 (37.3) % of control
  II-ADP, % of control (O2 consumption rate): 39 (26.3) % of control
  II-sub, % of control (O2 consumption rate): 150 (31.3) % of control
[2]; 100 µM
  I-ADP, % of control (O2 consumption rate): 21 (11.4) % of control
  I-sub, % of control (O2 consumption rate): 110 (14.8) % of control
  II-ADP, % of control (O2 consumption rate): 15 (9.9) % of control
  II-sub, % of control (O2 consumption rate): 61 (13.1) % of control
Rat primary hepatocytes [4]; Rattus norvegicus, Hepatocyte, 1 h, read-out: Rat hepatocytes IC50 (MMP)
  IC50: 10.5 µM
Rat primary hepatocytes [4]; Rattus norvegicus, Hepatocyte, read-out: MMP assays IC50 (µM) Rat Hepatocytes
  IC50: 4.65 ± 4.78 µM
HepG2 cells [5]
  MMP assays efficacy (%) qHTS-HepG2: -103±9%
  IC50: 0.64 ± 0.25 µM
HepG2 cells [6]; Homo sapiens, HepG2, 40 h, read-out: ATP (HepG2, galactose) IC50
  IC50: 41.4 µM
HepG2 cells [6]; Homo sapiens, HepG2, 40 h, read-out: ATP (HepG2, glucose) IC50
  IC50: 48.2 µM
hNSC; Homo sapiens, Neural stem cell, 1 h
  IC50: 12.6 µM
[12]; 0.5 µM
  LUM: mean difference in luminescence (ATP content) relative to plate controls: 0.2858
[12]; 1 µM
  LUM: mean difference in luminescence (ATP content) relative to plate controls: 0.2624
[12]; 5 µM
  LUM: mean difference in luminescence (ATP content) relative to plate controls: 0.9157
[12]; 10 µM
  LUM: mean difference in luminescence (ATP content) relative to plate controls: 0.9688
[12]; 25 µM
  LUM: mean difference in luminescence (ATP content) relative to plate controls: 0.9113
[12]; 50 µM
  LUM: mean difference in luminescence (ATP content) relative to plate controls: 1.406
[12]; 75 µM
  LUM: mean difference in luminescence (ATP content) relative to plate controls: 1.423
[12]; 100 µM
  LUM: mean difference in luminescence (ATP content) relative to plate controls: 1.347
[12]; Caenorhabditis elegans, read-out: LEC LUM: lowest effect concentration for luminescence, a measure of nematode ATP content
  minimal effective concentration: 5 µM
[13]
  LEC (lowest effect concentration), larval growth assay: < 10 µM
Rat primary hepatocytes [7]
  MMP assays efficacy (%) Rat Hepatocytes: -86±11%
  Rat hepatocytes (efficacy) (MMP): 10.5±4.28 ( −97.8±13.3 ) %
[8]
  Parkin recruitment: Inactive
[14]
  LEC (lowest effect concentration), ATP assay: < 10 µM
HepG2 cells [9]; Homo sapiens, HepG2, 2 h
  EC50: 41.7 µM
[10]; [17]
  p53 (HCT-116) EC50: Inactive
[11]; [17]
  ARE (HepG2) EC50: Inactive
HepG2 cells [15]; HepG2, 1 h, read-out: HepG2 IC50 Galactose (MMP)
  IC50: 46.3 µM
HepG2 cells [15]; HepG2, 1 h, read-out: HepG2 IC50 Glucose (MMP)
  IC50: 27.1 µM
HepG2 cells [15]; HepG2, read-out: MMP assays IC50 (µM) HepG2
  IC50: 3.55 µM
HepG2 cells [15]; HepG2, read-out: MMP assays efficacy (%) HepG2
  Emax: 109%
[16]; 0.5 µM
  EXT: mean difference in nematode size relative to plate controls: 0.2337
[16]; 1 µM
  EXT: mean difference in nematode size relative to plate controls: 0.388
[16]; 5 µM
  EXT: mean difference in nematode size relative to plate controls: 0.7901
[16]; 10 µM
  EXT: mean difference in nematode size relative to plate controls: 1.11
[16]; 25 µM
  EXT: mean difference in nematode size relative to plate controls: 1.457
[16]; 50 µM
  EXT: mean difference in nematode size relative to plate controls: 1.812
[16]; 75 µM
  EXT: mean difference in nematode size relative to plate controls: 1.667
[16]; 100 µM
  EXT: mean difference in nematode size relative to plate controls: 1.868
[16]; Caenorhabditis elegans, read-out: LEC EXT: lowest effect concentration for extinction, a measure of nematode size
  minimal effective concentration: 1 µM

— PMC6112376, “Comprehensive Analyses and Prioritization of Tox21 10K Chemicals Affecting Mitochondrial Function by in-Depth Mechanistic Studies” (Environmental Health Perspectives, 2018)
